ChEMBL document CHEMBL1201862, “PubChem BioAssay data set” (2004)
Activity calls are given as the source filed them. Cut-off read from the data, not from the text of the source, for most assays here: actives have a measured IC50 and inactives only a lower limit.

Tests used:
HSP90 = HSP90 (Plasmodium falciparum 3D7, UniProt Q8IL32); type: functional, organism-based
CAAX prenyl protease 2 [1] = biological target: T1, CAAX prenyl protease 2 (Saccharomyces cerevisiae S288c, UniProt Q03530); type: biochemical
T1 sequence (Q03530 whole entry): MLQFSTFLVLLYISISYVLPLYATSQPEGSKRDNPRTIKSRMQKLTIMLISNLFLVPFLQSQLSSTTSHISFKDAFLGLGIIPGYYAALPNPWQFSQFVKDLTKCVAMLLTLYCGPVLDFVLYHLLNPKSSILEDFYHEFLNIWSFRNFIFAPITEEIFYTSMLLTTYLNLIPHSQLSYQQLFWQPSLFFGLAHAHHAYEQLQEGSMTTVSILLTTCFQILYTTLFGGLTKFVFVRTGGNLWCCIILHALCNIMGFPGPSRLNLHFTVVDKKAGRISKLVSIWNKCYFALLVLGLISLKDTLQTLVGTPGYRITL

CAAX prenyl protease 2 [2] = biological target: T1, CAAX prenyl protease 2; experiment: yeast Rce1 CaaX protease inhibitors, dose response, biochemical, plate reader, dry powder retest (AID 588851)
[3] = biological target: T2, Sentrin-specific protease 8 (Homo sapiens, UniProt Q96LD8); experiment: SENP8 protease inhibitors, SAR follow-up, biochemical, luminescence (AID 504501); type: functional
T2 sequence (Q96LD8 whole entry): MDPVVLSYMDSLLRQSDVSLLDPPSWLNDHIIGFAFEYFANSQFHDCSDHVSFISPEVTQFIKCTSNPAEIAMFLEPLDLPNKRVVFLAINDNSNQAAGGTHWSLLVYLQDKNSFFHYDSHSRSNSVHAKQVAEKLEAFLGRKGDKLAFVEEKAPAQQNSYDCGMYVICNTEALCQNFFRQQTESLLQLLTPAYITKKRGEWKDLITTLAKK

Caspase-3 = biological target: T3, Caspase-3 (Homo sapiens, UniProt P42574); experiment: SAR Analysis of small molecule inhibitors of Sentrin-specific proteases (SENPs) using a Caspase-3 Selectivity assay. [Related pubchem assays (depositor defined):AID2540, AID2599, AID434973, AID489001]; type: functional
T3 sequence (P42574 whole entry): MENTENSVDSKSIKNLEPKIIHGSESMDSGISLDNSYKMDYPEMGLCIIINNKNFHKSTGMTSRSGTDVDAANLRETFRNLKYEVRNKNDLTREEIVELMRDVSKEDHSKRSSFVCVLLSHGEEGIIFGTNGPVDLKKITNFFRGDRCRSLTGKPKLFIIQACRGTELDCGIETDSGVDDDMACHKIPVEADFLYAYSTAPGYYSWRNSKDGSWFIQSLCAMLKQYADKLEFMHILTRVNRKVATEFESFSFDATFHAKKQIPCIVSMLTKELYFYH

[4] = biological target: T4, Sentrin-specific protease 6 (Homo sapiens, UniProt Q9GZR1); experiment: SAR Analysis of small molecule inhibitors of Sentrin-specific protease 6 (SENP6) using a Luminescent assay. [Related pubchem assays (depositor defined):AID2582, AID2599]; type: functional
T4 sequence (Q9GZR1 whole entry): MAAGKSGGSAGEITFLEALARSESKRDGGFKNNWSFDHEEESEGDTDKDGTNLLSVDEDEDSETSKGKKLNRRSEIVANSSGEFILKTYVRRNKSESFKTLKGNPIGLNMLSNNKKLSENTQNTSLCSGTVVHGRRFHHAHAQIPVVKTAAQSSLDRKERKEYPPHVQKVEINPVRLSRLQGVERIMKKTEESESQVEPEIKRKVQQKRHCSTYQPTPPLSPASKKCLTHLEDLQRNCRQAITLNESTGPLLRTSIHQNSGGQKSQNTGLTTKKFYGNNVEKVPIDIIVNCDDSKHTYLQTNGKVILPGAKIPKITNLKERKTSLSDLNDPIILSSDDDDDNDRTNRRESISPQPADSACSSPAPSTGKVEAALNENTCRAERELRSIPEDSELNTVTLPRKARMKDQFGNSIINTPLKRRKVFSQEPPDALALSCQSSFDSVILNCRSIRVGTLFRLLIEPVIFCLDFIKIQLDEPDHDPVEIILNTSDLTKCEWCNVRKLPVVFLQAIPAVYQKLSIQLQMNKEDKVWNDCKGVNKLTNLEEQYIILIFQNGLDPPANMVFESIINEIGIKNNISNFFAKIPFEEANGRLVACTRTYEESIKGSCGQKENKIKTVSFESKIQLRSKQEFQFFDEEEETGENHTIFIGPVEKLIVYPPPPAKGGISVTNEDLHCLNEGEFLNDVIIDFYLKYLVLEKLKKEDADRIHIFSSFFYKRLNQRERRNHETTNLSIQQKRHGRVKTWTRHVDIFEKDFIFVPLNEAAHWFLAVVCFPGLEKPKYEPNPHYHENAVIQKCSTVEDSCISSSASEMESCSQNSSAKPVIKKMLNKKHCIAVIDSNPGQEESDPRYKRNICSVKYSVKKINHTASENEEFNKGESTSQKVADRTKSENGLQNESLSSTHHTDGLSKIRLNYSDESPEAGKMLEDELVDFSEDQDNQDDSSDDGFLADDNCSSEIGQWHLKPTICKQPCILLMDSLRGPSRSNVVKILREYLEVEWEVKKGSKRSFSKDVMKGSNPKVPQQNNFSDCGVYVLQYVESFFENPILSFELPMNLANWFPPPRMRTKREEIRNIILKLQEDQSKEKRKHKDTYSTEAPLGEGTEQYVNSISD

[5] = biological target: T5, Sentrin-specific protease 7 (Homo sapiens, UniProt Q9BQF6); experiment: SENP7 protease inhibitors, SAR follow-up, biochemical, luminescence (AID 504497); type: functional
T5 sequence (Q9BQF6 whole entry): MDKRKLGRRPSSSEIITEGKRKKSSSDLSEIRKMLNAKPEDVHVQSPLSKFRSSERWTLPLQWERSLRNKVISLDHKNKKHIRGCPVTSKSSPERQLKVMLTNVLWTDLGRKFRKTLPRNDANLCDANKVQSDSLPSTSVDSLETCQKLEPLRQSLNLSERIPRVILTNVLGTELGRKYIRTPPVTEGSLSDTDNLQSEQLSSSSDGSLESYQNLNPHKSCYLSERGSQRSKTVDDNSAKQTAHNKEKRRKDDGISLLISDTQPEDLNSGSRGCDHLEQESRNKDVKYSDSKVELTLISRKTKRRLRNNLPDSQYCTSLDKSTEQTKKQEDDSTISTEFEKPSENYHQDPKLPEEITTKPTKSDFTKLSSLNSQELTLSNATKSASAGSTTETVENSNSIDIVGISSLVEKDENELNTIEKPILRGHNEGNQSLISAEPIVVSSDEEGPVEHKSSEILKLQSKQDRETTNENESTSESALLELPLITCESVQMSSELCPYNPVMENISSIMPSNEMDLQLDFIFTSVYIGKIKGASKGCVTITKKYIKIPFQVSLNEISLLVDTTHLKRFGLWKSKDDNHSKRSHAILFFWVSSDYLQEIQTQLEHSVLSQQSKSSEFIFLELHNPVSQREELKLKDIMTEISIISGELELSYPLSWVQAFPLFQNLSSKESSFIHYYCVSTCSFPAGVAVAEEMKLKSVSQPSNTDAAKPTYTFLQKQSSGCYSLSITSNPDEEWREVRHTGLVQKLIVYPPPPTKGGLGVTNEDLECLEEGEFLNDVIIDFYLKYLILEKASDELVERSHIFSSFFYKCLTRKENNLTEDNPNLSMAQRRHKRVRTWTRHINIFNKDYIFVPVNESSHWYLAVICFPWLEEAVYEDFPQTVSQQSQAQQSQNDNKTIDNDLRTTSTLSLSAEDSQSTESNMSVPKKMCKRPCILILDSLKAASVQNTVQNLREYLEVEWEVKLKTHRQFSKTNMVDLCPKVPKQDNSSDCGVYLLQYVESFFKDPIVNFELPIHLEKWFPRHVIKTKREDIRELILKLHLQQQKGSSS

Chain of HSP90 (Q8IL32 whole entry): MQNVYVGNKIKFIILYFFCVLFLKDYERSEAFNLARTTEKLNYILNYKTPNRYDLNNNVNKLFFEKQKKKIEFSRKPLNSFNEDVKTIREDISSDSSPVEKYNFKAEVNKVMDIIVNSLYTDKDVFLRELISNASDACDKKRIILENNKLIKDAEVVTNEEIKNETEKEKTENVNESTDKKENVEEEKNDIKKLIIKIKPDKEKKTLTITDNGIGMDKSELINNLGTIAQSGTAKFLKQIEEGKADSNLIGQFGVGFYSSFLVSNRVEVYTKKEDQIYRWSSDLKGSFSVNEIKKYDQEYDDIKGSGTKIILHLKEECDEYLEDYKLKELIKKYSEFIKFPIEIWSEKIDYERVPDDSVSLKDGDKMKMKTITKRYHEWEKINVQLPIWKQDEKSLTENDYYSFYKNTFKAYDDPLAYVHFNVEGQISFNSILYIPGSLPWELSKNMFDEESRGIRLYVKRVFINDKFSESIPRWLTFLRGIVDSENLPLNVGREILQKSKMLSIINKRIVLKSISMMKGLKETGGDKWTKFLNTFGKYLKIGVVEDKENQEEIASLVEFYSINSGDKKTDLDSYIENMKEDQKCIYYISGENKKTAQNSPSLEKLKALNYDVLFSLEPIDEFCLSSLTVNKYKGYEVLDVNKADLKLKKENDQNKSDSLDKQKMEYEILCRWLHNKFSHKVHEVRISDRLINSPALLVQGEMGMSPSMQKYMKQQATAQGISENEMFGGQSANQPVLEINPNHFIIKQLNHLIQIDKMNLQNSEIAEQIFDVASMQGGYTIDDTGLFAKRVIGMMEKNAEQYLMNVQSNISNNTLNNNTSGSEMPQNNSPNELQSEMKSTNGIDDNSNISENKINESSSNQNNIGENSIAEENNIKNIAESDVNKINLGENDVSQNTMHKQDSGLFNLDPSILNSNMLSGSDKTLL

CCCC1CCC(c2ccc(C(=N)NO)cc2)CC1 (configuration not stated)
AC50 (HSP90): 28.6 µM (active)

Cc1cccc(-c2nnc(SCc3ccc(C#N)cc3)n2Cc2ccco2)c1
AC50 (CAAX prenyl protease 2 [1]): 0.963 µM (active) | AC50 (CAAX prenyl protease 2 [2]): 16.8 µM (active)

CCc1cccc2c(C(=O)CN3C(=O)c4ccccc4S3(=O)=O)c[nH]c12
IC50 [3]: > 99 µM (inactive) | IC50 (Caspase-3): > 99 µM (inactive) | IC50 [4]: > 99 µM (inactive) | IC50 [5]: > 99 µM (inactive)
